Legend:
[1] = biological target: T1, mu-opioid receptor (Homo sapiens, UniProt P35372); test: biochemical; settings: read-out: GTP Activity
Target sequence in this assay (P35372 whole entry, species assumed): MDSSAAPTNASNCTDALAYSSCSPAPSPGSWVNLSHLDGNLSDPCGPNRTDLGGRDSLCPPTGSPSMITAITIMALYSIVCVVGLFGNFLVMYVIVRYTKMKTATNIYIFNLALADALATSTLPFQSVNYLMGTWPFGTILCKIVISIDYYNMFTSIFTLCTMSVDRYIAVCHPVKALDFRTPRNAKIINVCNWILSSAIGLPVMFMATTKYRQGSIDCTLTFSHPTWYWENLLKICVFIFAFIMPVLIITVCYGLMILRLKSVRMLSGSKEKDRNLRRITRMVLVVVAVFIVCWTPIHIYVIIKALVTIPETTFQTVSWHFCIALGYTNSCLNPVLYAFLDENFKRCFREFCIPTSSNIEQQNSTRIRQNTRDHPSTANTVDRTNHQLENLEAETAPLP

[2] = biological target: T1, mu-opioid receptor; test: cell-based; settings: read-out: BArr Activity
Target sequence in this assay (P35372 whole entry, species assumed): as above
Target sequence in this assay (P32121 whole entry partner, species assumed): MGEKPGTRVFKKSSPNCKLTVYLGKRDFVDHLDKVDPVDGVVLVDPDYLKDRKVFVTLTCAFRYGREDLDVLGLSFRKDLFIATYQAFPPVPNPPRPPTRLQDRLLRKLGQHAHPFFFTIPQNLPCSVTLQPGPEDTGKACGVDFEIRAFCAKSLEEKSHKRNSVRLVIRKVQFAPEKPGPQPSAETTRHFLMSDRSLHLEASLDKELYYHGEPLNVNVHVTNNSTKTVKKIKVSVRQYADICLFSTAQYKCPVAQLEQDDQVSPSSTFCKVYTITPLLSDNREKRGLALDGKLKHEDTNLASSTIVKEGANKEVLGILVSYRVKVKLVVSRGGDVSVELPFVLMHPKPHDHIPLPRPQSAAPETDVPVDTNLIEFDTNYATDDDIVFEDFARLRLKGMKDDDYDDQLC

[3] = […], class symbol combines EC50 and efficacy

SMILES | EC50 [1, 3] [µM] | EC50 [2, 3] [µM] | EC50 ([1]; class symbols) [µM] | EC50 ([2]; class symbols) [µM]
CNC1=C(c2nc3ccccc3[nH]2)C(=O)C(CC(C)O)N1c1cc(OC)cc(OC)c1 (stereo not shown) [compound 310] | < 0.1 | < 10 | – | –
CCC(=O)NCC1C(=O)C(c2nc3ccccc3[nH]2)=C(NC)N1c1cc(OC)cc(OC)c1 (stereo not shown) [compound 288] | < 0.1 | < 10 | – | –
COc1cc(OC)cc(N2C(N)=C(c3nc4ccccc4[nH]3)C(=O)[C@@H]2CCO)c1 [compound 242] | < 0.1 | < 10 | – | –
COc1cc(OC)cc(N2C(N)=C(c3nc4ccccc4[nH]3)C(=O)C2CCNC(=O)c2ccccc2)c1 (stereo not shown) [compound 236] | < 0.1 | < 10 | – | –
CC[C@H]1C(=O)C(c2nc3ccccc3[nH]2)=C(N)N1c1cc(OC)cc(OC)c1 [compound 96] | – | – | < 0.1 | < 10
COc1cc(OC)cc(N2C(N)=C(c3nc4ccccc4[nH]3)C(=O)C2C(C)C)c1 (stereo not shown) [compound 55] | – | – | 0.1 to 1 | < 10
COc1cc(OC)cc(N2C(N)=C(c3nc4ccccc4[nH]3)C(=O)C2CCNC(C)=O)c1 (stereo not shown) [compound 233] | < 0.1 | < 10 | – | –
CCNC1=C(c2nc3ccccc3[nH]2)C(=O)[C@H](CC)N1c1cc(OC)cc(OC)c1 [compound 187] | – | – | < 0.1 | < 10
CNC1=C(c2nc3ccccc3[nH]2)C(=O)C(C)(CNC(C)=O)N1c1cc(OC)cc(OC)c1 (stereo not shown) [compound 281] | < 0.1 | < 10 | – | –
CNC1=C(c2nc3ccccc3[nH]2)C(=O)C2(CCCC2)N1c1cc(OC)cc(OC)c1 [compound 188] | – | – | < 0.1 | < 10
COc1cc(OC)cc(N2C(N)=C(c3nc4ccccc4[nH]3)C(=O)C2CCO)c1 (stereo not shown) [compound 203] | < 0.1 | < 10 | – | –
COc1cc(OC)cc(N2C(N)=C(c3nc4ccccc4[nH]3)C(=O)C23CCCC3)c1 [compound 180] | – | – | 0.1 to 1 | < 10
CNC1=C(c2nc3ccccc3[nH]2)C(=O)C2(CCOC2)N1c1cc(OC)cc(OC)c1 (stereo not shown) [compound 208] | < 0.1 | < 10 | – | –
COc1cc(OC)cc(N2C(N)=C(c3nc4ccccc4[nH]3)C(=O)C2(C)C)c1 [compound 2] | – | – | 0.1 to 1 | < 10
CCNC1=C(c2nc3ccccc3[nH]2)C(=O)C(C)(C)N1c1cc(OC)cc(OC)c1 [compound 89] | – | – | < 0.1 | < 10
CCC(=O)NCC1(C)C(=O)C(c2nc3ccccc3[nH]2)=C(NC)N1c1cc(OC)cc(OC)c1 (stereo not shown) [compound 282] | < 0.1 | < 10 | – | –
CNC1=C(c2nc3ccccc3[nH]2)C(=O)C(C)N1c1cc(OC)cc(OC)c1 (stereo not shown) [compound 121] | – | – | < 0.1 | < 10
CNC1=C(c2nc3ccccc3[nH]2)C(=O)[C@@]2(CCOC2)N1c1cc(OC)cc(OC)c1 [compound 214] | < 0.1 | < 10 | – | –
CCC(=O)NCCC1C(=O)C(c2nc3ccccc3[nH]2)=C(N)N1c1cc(OC)cc(OC)c1 (stereo not shown) [compound 235] | < 0.1 | < 10 | – | –
CCNC1=C(c2nc3ccccc3[nH]2)C(=O)C(CC)N1c1cc(OC)cc(OC)c1 (stereo not shown) [compound 154] | – | – | 0.1 to 1 | < 10
